Legend:
C3H 10T1/2 = assay: Inhibition of arachidonic acid metabolite release in C3H10T1/2 cells; type: functional, Mus musculus
[1] = biological target: Epidermal growth factor receptor (Mus musculus) (UniProt Q01279); assay: Inhibition of epidermal growth factor binding in C3H10T1/2 cells; type: functional, cell-based; settings: C3H 10T1/2
[2] = Displacement of [3H]PDBu from Protein kinase C in vitro; set-up: species or system Mus musculus

Sequence of Epidermal growth factor receptor (Mus musculus) (Q01279 whole entry): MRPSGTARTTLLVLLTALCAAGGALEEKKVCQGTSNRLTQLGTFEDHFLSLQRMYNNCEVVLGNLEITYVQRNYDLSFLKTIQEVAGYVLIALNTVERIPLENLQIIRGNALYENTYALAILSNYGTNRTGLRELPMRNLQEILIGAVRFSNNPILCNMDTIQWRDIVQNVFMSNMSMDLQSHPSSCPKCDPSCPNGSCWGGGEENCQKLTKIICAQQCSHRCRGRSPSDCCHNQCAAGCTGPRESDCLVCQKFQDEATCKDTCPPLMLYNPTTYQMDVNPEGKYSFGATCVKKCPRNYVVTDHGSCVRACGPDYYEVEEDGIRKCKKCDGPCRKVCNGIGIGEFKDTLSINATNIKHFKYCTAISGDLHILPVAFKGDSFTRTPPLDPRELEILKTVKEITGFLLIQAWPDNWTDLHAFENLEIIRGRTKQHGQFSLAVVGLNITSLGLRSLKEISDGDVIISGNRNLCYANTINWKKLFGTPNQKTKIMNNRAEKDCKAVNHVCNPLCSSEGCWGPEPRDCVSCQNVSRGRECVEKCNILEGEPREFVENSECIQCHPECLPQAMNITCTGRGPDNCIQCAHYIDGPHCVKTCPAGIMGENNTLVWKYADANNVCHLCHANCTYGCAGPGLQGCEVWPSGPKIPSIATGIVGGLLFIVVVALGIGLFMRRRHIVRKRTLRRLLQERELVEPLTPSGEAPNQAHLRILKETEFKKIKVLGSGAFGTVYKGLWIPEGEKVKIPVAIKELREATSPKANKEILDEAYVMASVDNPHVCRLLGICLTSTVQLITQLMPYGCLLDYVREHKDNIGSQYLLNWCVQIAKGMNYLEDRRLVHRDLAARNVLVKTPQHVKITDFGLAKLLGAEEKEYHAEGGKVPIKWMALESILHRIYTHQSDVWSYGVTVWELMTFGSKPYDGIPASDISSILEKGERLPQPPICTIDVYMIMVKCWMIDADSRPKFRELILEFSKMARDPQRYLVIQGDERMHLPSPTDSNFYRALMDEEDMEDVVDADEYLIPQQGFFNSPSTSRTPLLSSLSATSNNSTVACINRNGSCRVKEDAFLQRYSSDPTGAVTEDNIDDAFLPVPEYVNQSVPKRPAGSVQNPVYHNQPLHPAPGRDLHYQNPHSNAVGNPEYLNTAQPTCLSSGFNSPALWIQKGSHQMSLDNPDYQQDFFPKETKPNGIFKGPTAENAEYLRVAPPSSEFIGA

CC(=O)O[C@@]12C[C@@H](C)[C@@]3(O)[C@@H](C=C(CO)C[C@]4(O)C(=O)C(C)=C[C@@H]34)[C@@H]1C2(C)C [PROSTRATIN]
Effective concentration (C3H 10T1/2): 1100 nM
Effective concentration [1]: 220 nM
Ki [2]: 12.5 nM

Source: ChEMBL document CHEMBL1126055, “A nonpromoting phorbol from the samoan medicinal plant Homalanthus nutans inhibits cell killing by HIV-1” (J Med Chem, 1992)
